Measurements published in patent publication US9023986B2, “Glucose-dependent insulinotropic peptide analogs” (Hoffmann-La Roche Inc., priority 2010, dated 2015).

Target: T1, human GIPR (Homo sapiens, UniProt P48546)
T1 construct: host or cells: CHO-K1
T1 sequence (P48546 22-466): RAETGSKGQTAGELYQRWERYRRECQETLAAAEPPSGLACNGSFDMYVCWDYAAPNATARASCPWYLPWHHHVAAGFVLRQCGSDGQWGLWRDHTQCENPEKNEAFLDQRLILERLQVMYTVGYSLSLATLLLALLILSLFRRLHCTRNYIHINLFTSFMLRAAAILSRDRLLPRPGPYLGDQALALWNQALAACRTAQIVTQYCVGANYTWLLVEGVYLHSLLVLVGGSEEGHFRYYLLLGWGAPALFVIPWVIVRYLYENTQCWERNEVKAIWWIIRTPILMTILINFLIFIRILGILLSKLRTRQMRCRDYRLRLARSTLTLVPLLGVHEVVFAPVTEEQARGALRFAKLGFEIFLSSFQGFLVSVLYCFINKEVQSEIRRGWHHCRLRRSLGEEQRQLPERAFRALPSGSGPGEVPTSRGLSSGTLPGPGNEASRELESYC
Test: cAMP production in CHO-K1 cells expressing human GIPR (LANCE cAMP assay)
Format: cell-based
Conditions: for Emax: CHO-K1, read-out: % activation of cAMP (maximal stimulation)
Method: CHO—K1 cells expressing human GIPR were obtained from DiscoverX Corporation (Fremont, Calif.). The cells were cultured in Ham's F-12 nutrient media supplemented with 10% foetal bovine serum, 800 μg/ml geneticin, 300 μg/ml hydromycin, 2 mM L-glutamine, and Penicillin-streptomycin (100 units, 100 μg) at 37° C. in a 5% CO2 incubator. The cells were harvested at 90% confluence.
The cells were suspended in Ham's F-12 nutrient media to a concentration of 200,000 cells/ml. The cells were then plated in a 384 well plate at with […] of the suspension added per well. The cells were incubated overnight at 37° C. in a 5% CO2 incubator.
The activity of the compounds was determined by stimulating the CHO—K1 cells with the test compound, and measuring the levels of cAMP produced. The activity of the compounds was compared to the activity of native GIP, as GIP stimulates cAMP production. 6 μl of the test compound in stimulation buffer (990 ml Hank's Balanced Salt solution (HBSS) (1×) (Invitrogen Corp #14025-092), 10 ml Hepes buffer solution (1 mol·L) (Invitrogen Corp 15630-080), 1 g BSA (final 0.1%), and 1 ml IBMX 250 mM stock prepared fresh in DMSO (Sigma-Aldrich 15879)) were added to cells, followed by 6 μl of Alexa Fluor® 647-anti cAMP antibody (Perkin Elmer) in stimulation buffer. […] The well plate was centrifuged for 3 min at 300 rpm, and incubated at room temperature for 45 minutes. 12 μl of detection mixture (biotin cAMP and EUW8044 labeled streptavidin (Eu-SA) in cAMP Detection Buffer (Perkin Elmer)) was added and incubated for 60 min at room temperature.
The levels of cAMP produced were measured according to the detailed protocol outlined in the Perkin Elmer LANCE cAMP Assay Perkin Elmer Lance cAMP Kit manual. The activity of the compounds was compared to the activity of native GIP.
The plates are read on a TRF detection instrument, EnVision® (Perkin Elmer) (excitation at 340 nm and emission at 665 nm). The values of the cAMP signal are obtained from the standard cAMP curve and used to determine the amount of maximal stimulation, and EC50 for stimulating the cAMP signal.

Row | SMILES | EC50 | Emax
1 | CC[C@H](C)[C@H](NC(=O)[C@H](CO)NC(=O)[C@H](Cc1ccc(O)cc1)NC(=O)[C@H](CC(=O)O)NC(=O)[C@H](CO)NC(=O)[C@@H](NC(=O)[C@H](Cc1ccccc1)NC(=O)[C@@H](NC(=O)CNC(=O)[C@H](CCC(=O)O)NC(=O)[C@H](C)NC(=O)[C@@H](Cc1ccccc1)NC(C)=O)[C@@H](C)O)[C@@H](C)CC)C(=O)N[C@@H](C)C(=O)N[C@@H](CCSC)C(=O)N[C@@H](CC(=O)O)C(=O)N[C@@H](CCCCN)C(=O)N[C@H](C(=O)N[C@@H](Cc1c[nH]cn1)C(=O)N[C@@H](CCC(N)=O)C(=O)N[C@@H](CCC(N)=O)C(=O)N[C@@H](CC(=O)O)C(=O)N[C@@H](Cc1ccccc1)C(=O)N[C@H](C(=O)N[C@@H](CC(N)=O)C(=O)N[C@@H](Cc1c[nH]c2ccccc12)C(=O)N[C@@H](CC(C)C)C(=O)N[C@@H](CC(C)C)C(=O)N[C@@H](C)C(=O)N[C@@H](CCC(N)=O)C(=O)N[C@@H](CCCCN)C(N)=O)C(C)C)[C@@H](C)CC [Example 8] | 0.685 nM | 102%
2 | CC[C@H](C)[C@H](NC(=O)[C@H](CO)NC(=O)[C@H](Cc1ccc(O)cc1)NC(=O)[C@H](CC(=O)O)NC(=O)[C@H](CO)NC(=O)[C@@H](NC(=O)[C@H](Cc1ccccc1)NC(=O)[C@@H](NC(=O)CNC(=O)[C@H](CCC(=O)O)NC(=O)[C@H](C)NC(=O)[C@@H](Cc1cccc(F)c1)NC(C)=O)[C@@H](C)O)[C@@H](C)CC)C(=O)N[C@@H](C)C(=O)N[C@@H](CCSC)C(=O)N[C@@H](CC(=O)O)C(=O)N[C@@H](CCCCN)C(=O)N[C@H](C(=O)N[C@@H](Cc1c[nH]cn1)C(=O)N[C@@H](CCC(N)=O)C(=O)N[C@@H](CCC(N)=O)C(=O)N[C@@H](CC(=O)O)C(=O)N[C@@H](Cc1ccccc1)C(=O)N[C@H](C(=O)N[C@@H](CC(N)=O)C(=O)N[C@@H](Cc1c[nH]c2ccccc12)C(=O)N[C@@H](CC(C)C)C(=O)N[C@@H](CC(C)C)C(=O)N[C@@H](C)C(=O)N[C@@H](CCC(N)=O)C(=O)N[C@@H](CCCCN)C(N)=O)C(C)C)[C@@H](C)CC [Example 16] | 0.058 nM | 98%
3 | CC[C@H](C)[C@H](NC(=O)[C@H](CO)NC(=O)[C@H](Cc1ccc(O)cc1)NC(=O)[C@H](CC(=O)O)NC(=O)[C@H](CO)NC(=O)[C@@H](NC(=O)[C@H](Cc1ccccc1)NC(=O)[C@@H](NC(=O)CNC(=O)[C@H](CCC(=O)O)NC(=O)[C@H](C)NC(=O)[C@@H](Cc1ccccc1F)NC(C)=O)[C@@H](C)O)[C@@H](C)CC)C(=O)N[C@@H](C)C(=O)N[C@@H](CCSC)C(=O)N[C@@H](CC(=O)O)C(=O)N[C@@H](CCCCN)C(=O)N[C@H](C(=O)N[C@@H](Cc1c[nH]cn1)C(=O)N[C@@H](CCC(N)=O)C(=O)N[C@@H](CCC(N)=O)C(=O)N[C@@H](CC(=O)O)C(=O)N[C@@H](Cc1ccccc1)C(=O)N[C@H](C(=O)N[C@@H](CC(N)=O)C(=O)N[C@@H](Cc1c[nH]c2ccccc12)C(=O)N[C@@H](CC(C)C)C(=O)N[C@@H](CC(C)C)C(=O)N[C@@H](C)C(=O)N[C@@H](CCC(N)=O)C(=O)N[C@@H](CCCCN)C(N)=O)C(C)C)[C@@H](C)CC [Example 15] | 0.0075 nM | 99.8%
4 | CC[C@H](C)[C@H](NC(=O)[C@H](CO)NC(=O)[C@H](Cc1ccc(O)cc1)NC(=O)[C@H](CC(=O)O)NC(=O)[C@H](CO)NC(=O)[C@@H](NC(=O)[C@H](Cc1ccccc1)NC(=O)[C@@H](NC(=O)CNC(=O)[C@H](CCC(=O)O)NC(=O)[C@H](C)NC(=O)[C@@H](Cc1cccc(Cl)c1)NC(C)=O)[C@@H](C)O)[C@@H](C)CC)C(=O)N[C@@H](C)C(=O)N[C@@H](CCSC)C(=O)N[C@@H](CC(=O)O)C(=O)N[C@@H](CCCCN)C(=O)N[C@H](C(=O)N[C@@H](Cc1c[nH]cn1)C(=O)N[C@@H](CCC(N)=O)C(=O)N[C@@H](CCC(N)=O)C(=O)N[C@@H](CC(=O)O)C(=O)N[C@@H](Cc1ccccc1)C(=O)N[C@H](C(=O)N[C@@H](CC(N)=O)C(=O)N[C@@H](Cc1c[nH]c2ccccc12)C(=O)N[C@@H](CC(C)C)C(=O)N[C@@H](CC(C)C)C(=O)N[C@@H](C)C(=O)N[C@@H](CCC(N)=O)C(=O)N[C@@H](CCCCN)C(N)=O)C(C)C)[C@@H](C)CC [Example 13] | 0.072 nM | 106%
5 | CC[C@H](C)[C@H](NC(=O)[C@H](CO)NC(=O)[C@H](Cc1ccc(O)cc1)NC(=O)[C@H](CC(=O)O)NC(=O)[C@H](CO)NC(=O)[C@@H](NC(=O)[C@H](Cc1ccccc1)NC(=O)[C@@H](NC(=O)CNC(=O)[C@H](CCC(=O)O)NC(=O)[C@H](C)NC(=O)[C@@H](Cc1c[nH]c2ccccc12)NC(C)=O)[C@@H](C)O)[C@@H](C)CC)C(=O)N[C@@H](C)C(=O)N[C@@H](CCSC)C(=O)N[C@@H](CC(=O)O)C(=O)N[C@@H](CCCCN)C(=O)N[C@H](C(=O)N[C@@H](Cc1c[nH]cn1)C(=O)N[C@@H](CCC(N)=O)C(=O)N[C@@H](CCC(N)=O)C(=O)N[C@@H](CC(=O)O)C(=O)N[C@@H](Cc1ccccc1)C(=O)N[C@H](C(=O)N[C@@H](CC(N)=O)C(=O)N[C@@H](Cc1c[nH]c2ccccc12)C(=O)N[C@@H](CC(C)C)C(=O)N[C@@H](CC(C)C)C(=O)N[C@@H](C)C(=O)N[C@@H](CCC(N)=O)C(=O)N[C@@H](CCCCN)C(N)=O)C(C)C)[C@@H](C)CC [Example 10] | 0.1 nM | 102%
